Earlier results, collected in patent publication US20160034667A1, “TAILORED DRUG THERAPIES AND METHODS AND SYSTEMS FOR DEVELOPING SAME” (COMPANION DX REFERENCE LAB, LLC, priority 2014, published 2016).
Like-named read-outs stand apart in the source and are kept apart here.

Columns and labels:
[1] = tested on: NSCLC patients with drug-sensitive EGFR mutations
[2] = biological target: CYP2D6 (Homo sapiens, UniProt P10635)
[3] = tested on: molecularly unselected NSCLC patients; conditions: FIG. 8 (A)
[4] = not given; remark: listed apart in the source
[5] = printed on the line of the peak range
[6] = printed on the line of the trough range

Sequence of CYP2D6 (P10635 whole entry): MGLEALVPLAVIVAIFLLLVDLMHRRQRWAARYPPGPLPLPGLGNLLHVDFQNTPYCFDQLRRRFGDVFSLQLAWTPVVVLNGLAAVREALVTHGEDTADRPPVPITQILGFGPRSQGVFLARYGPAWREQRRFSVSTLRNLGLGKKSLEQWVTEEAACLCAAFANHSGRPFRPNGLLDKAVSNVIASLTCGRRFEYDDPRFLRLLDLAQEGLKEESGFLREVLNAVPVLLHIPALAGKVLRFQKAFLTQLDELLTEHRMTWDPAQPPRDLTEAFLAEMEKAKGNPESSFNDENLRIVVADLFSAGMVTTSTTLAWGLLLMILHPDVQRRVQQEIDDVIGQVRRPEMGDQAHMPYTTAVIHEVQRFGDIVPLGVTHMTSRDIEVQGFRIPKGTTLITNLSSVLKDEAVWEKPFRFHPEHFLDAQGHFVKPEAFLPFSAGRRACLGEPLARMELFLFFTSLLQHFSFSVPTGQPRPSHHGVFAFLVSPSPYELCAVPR

Compound | Therapeutic Range (in vivo) | t1/2 (in vivo) [h] | Critical (in vivo) | other results
Cn1c(=O)c2[nH]cnc2n(C)c1=O [Theophylline] | 10 to 20 mg/L | 3 to 9 |  | 
CCC1(c2ccccc2)C(=O)NCNC1=O [Primidone] | 5 to 12 mg/L | 6 to 12 | >15 mg/L | 
C#Cc1cccc(Nc2ncnc3cc(OCCOC)c(OCCOC)cc23)c1 [erlotinib] |  |  |  | response in patients with drug-sensitive EGFR mutations at Exon 19 and 21 [1]: significantly better response
O=C(O)c1ccccc1O [Salicylate] | 100 to 300 mg/L | 2 to 19 | >450 mg/L | 
[Li] [Lithium] | 0.5 to 1.5 mmol/L | 19 | >2.0 mmol/L | 
COc1cc2ncnc(Nc3ccc(F)c(Cl)c3)c2cc1OCCCN1CCOCC1 [gefitinib, Gefitinib] |  |  |  | inhibition of CYP2D6 activity [2]: weak inhibitor; progression free survival rate [3]: no detectable change; reduction of area under the curve of gefitinib ([4]; co-medication with CYP3A4 inducer rifampin): 83%; exposure to gefitinib ([4]; co-medication with CYP3A4 inhibitor (intraconazole), health men): increases exposure
CCN(CC)CCNC(=O)c1ccc(NC(C)=O)cc1 [NAPA, N-acetylprocainamide] |  | 6 to 12 |  | 
CN[C@H](CC(C)C)C(=O)N[C@H]1C(=O)N[C@@H](CC(N)=O)C(=O)N[C@H]2C(=O)N[C@H]3C(=O)N[C@H](C(=O)N[C@H](C(=O)O)c4cc(O)cc(O)c4-c4cc3ccc4O)[C@H](O)c3ccc(c(Cl)c3)Oc3cc2cc(c3O[C@@H]2O[C@H](CO)[C@@H](O)[C@H](O)[C@H]2O[C@H]2C[C@](C)(N)[C@H](O)[C@H](C)O2)Oc2ccc(cc2Cl)[C@H]1O [Vancomycin] |  | 5.0 to 6.5 |  | Therapeutic Range, peak: peak 30-40 mg/L,; Critical [5]: >50 mg/L,; Critical [6]: >15 mg/L; Therapeutic Range, trough: trough 5-15 mg/L
NCC[C@H](O)C(=O)N[C@@H]1C[C@H](N)[C@@H](O[C@H]2O[C@H](CN)[C@@H](O)[C@H](O)[C@H]2O)[C@H](O)[C@H]1O[C@H]1O[C@H](CO)[C@@H](O)[C@H](N)[C@H]1O [Amikacin] |  | 2.5 | >40 mg/L | Therapeutic Range, peak: peak 20-30 mg/L,; Therapeutic Range, trough: trough 1-8 mg/L
CC(=O)Nc1ccc(O)cc1 [Acetaminophen] | 10 to 25 mg/L | 1 to 3 | >40 mg/L | 
C=C[C@H]1C[N@@]2CC[C@H]1C[C@@H]2[C@@H](O)c1ccnc2ccc(OC)cc12 [Quinidine] |  |  | >7 mg/L | 
CCC1(c2ccccc2)C(=O)NC(=O)NC1=O [Phenobarbital] |  | 72 to 100 |  | 
C[C@H]1O[C@@H](O[C@H]2[C@@H](O)C[C@H](O[C@H]3[C@@H](O)C[C@H](O[C@H]4CC[C@@]5(C)[C@H](CC[C@@H]6[C@@H]5C[C@@H](O)[C@]5(C)[C@@H](C7=CC(=O)OC7)CC[C@]65O)C4)O[C@@H]3C)O[C@@H]2C)C[C@H](O)[C@@H]1O [Digoxin] |  | 33 to 51 |  | 
O=C1NC(=O)C(c2ccccc2)(c2ccccc2)N1 [Phenytoin] | 10 to 20 mg/L | 6 to 24 | >25 mg/L | 
NC[C@H]1O[C@H](O[C@H]2[C@H](O)[C@@H](O[C@H]3O[C@H](CO)[C@@H](O)[C@H](N)[C@H]3O)[C@H](N)C[C@@H]2N)[C@H](N)C[C@@H]1O [Tobramycin] |  | 2 |  | Therapeutic Range, peak: peak 4-10 mg/L,; Critical [5]: >12 mg/L,; Critical [6]: >5 mg/L; Therapeutic Range, trough: trough 0.5-1.5 mg/L
CCN(CC)CC(=O)Nc1c(C)cccc1C [Lidocaine] | 1.5 to 5 mg/L |  | >8.0 mg/L | 
Gentamicin |  | 2 | >12 mg/L | Therapeutic Range, peak: peak 4-10 mg/L,; Therapeutic Range, trough: trough 1-2 mg/L
CCCC(CCC)C(=O)O [Valproic acid] | 50 to 100 mg/L | 8 to 15 | >200 mg/L | 
NC(=O)N1c2ccccc2C=Cc2ccccc21 [Carbamazepine] | 8 to 12 mg/L | 10 to 48 | >15 mg/L | 
